Experimental data published in patent US20030109444A1, “Bone anti-resorptive compounds” (priority 2001, published 2003).
Entries after “also recorded” stand apart in the source; their conditions may differ.

Tested on: osteoclast precursors (bone marrow macrophages)
Assay: Osteoclast differentiation of bone marrow macrophage cultures monitored by TRAP activity
Type: cell-based
Conditions: cell cultures of osteoclast precursors (mouse BMMs) with M-CSF, increasing concentrations of peptide, FIG. 1
Procedure: The effect of a partial AA″ loop polypeptide of RANKL on TRAP activity. Wild type C3H/HENJ mice were purchased from Harlan Industries (Indianapolis, Ind.). In order to establish a cell culture of osteoclast precursors, bone marrow macrophages (BMMs) were isolated from whole bone marrow of four to six week old mice and incubated in tissue culture dishes at 37° C. in 5% CO2. After 24 hours in culture, the non-adherent cells were collected and layered on a Ficoll Hypaque gradient and the cells at the gradient interface were collected. Cells were replated at 65,000/cm^2 in α-minimal essential medium, supplemented with 10% heat inactivated fetal bovine serum, at 37° C. in 5% CO2 in the presence of recombinant mouse M-CSF (10 ng.ml). The cell cultures were then treated either with the increasing concentrations of polypeptide of SEQ ID NO 1 (subset of AA″ loop) or with a negative control scrambled peptide having the same molecular weight as the test compound. […] This phosphatase is an osteoclast specific enzyme and its activity corresponds with osteoclast differentiation. TRAP activity is measured by quantitating its ability to cleave a substrate in a color-producing reaction.

Sequence: PSGSHKVTLSS [SEQ ID NO 1]
- TRAP activity: decreases TRAP activity
- inhibition of RANKL-induced osteoclast differentiation as monitored by TRAP (listed as test compound): competitively inhibits the ability of RANKL to induce osteoclast differentiation; also recorded: dose-dependent
